Test results: patent publication US20100279990A1, “ANTIPROLIFERATIVE COMPOUNDS, COMPOSITIONS AND METHODS OF USE” (RAMOT AT TEL-AVIV UNIVERSITY LTD., priority 2006, published 2010)

How the values were obtained:
[1] = system: IFN γ secretion in Con-A activated naive mouse splenocytes; assay: IFN γ secretion in Con-A activated naive mouse splenocytes; format: cell-based; settings: FIG. 3B
Excerpt: This example illustrates IFN y secretion data obtained by separately administering different concentrations of compound (Ia), paroxetine, citalopram, and ecitalopram to Con-A activated naive mouse splenocytes. The results are depicted in FIG. 3B.

male Balb/C mice = assay: Acute toxicity in male Balb/C mice, ip; format: in vivo
Protocol: This example illustrates acute toxicity data derived from the treatment of male Balb/C mice with different concentrations of compound (Ia). The results are depicted in FIG. 11. Compound (Ia) was administered ip to groups of mice at doses of 10, 20 and 30 mg/kg. Sertraline was also administered to one group at 30 mg/kg. Each group of mice included five animals.
Body weight was determined up to 12 days after drug administration.

BXF 1218L = assay: Monolayer Assay, PI: BXF 1218L (Bladder); format: cell-based, human
Excerpt: (§1) This example illustrates cell proliferation data in the form of IC50, IC70 and IC90 values obtained by exposure of human cancer cell-lines to compound (Ia). […].

BXF T24 = assay: Monolayer Assay, PI: BXF T24 (Bladder); format: cell-based, human
Excerpt: as §1

GXF 251L = assay: Monolayer Assay, PI: GXF 251L (Gastric); format: cell-based, human
Excerpt: as §1

HNXF 536L = assay: Monolayer Assay, PI: HNXF 536L; format: cell-based, human
Excerpt: as §1

MEXF 276L = assay: Monolayer Assay, PI: MEXF 276L (Melanoma); format: cell-based, human
Excerpt: as §1

MEXF 394NL = assay: Monolayer Assay, PI: MEXF 394NL (Melanoma); format: cell-based, human
Excerpt: as §1

## CN[C@H]1CC[C@@H](c2ccc(Cl)c(Cl)c2)c2ccc(C#CCCCO)cc21 [compound (Ia), (1S-cis)-4-(3,4-dichlorophenyl)-7-(5-hydroxy-1-pentyn-1-yl)-1,2,3,4-tetrahydro-N-methyl-1-naphthalenamine hydroiodide]
[1]
  IFN γ secretion inhibitory activity: greater IFN γ secretion inhibitory activity than paroxetine, citalopram, and ecitalopram
Male Balb/C mice; ip 10, 20 and 30 mg/kg, observed 4 h and after 24 h
  behavioral changes: none of the animals showed any observed change in behavior
Male Balb/C mice; ip 10, 20 and 30 mg/kg, over 12 days
  changes in food intake or body weight: none of the animals exhibited changes in food intake or body weight
Male Balb/C mice; ip, up to 30 mg/kg
  tolerability of acute ip administration: well tolerated
BXF 1218L; 2.3 μg/ml
  Test/Control (%): 97%
  Test/Control activity class: − (− (T/C = 50))
BXF 1218L; 7.5 μg/ml
  Test/Control (%): 92%
  Test/Control activity class: − (− (T/C = 50))
BXF 1218L; 23. μg/ml
  Test/Control (%): 4%
  Test/Control activity class: +++ (+++ (T/C < 10))
BXF 1218L; 75. μg/ml
  Test/Control (%): 5%
  Test/Control activity class: +++ (+++ (T/C < 10))
BXF 1218L; .75 μg/ml
  Test/Control (%): 101%
  Test/Control activity class: − (− (T/C = 50))
BXF T24; 2.3 μg/ml
  Test/Control (%): 93%
  Test/Control activity class: − (− (T/C = 50))
BXF T24; 7.5 μg/ml
  Test/Control (%): 53%
  Test/Control activity class: − (− (T/C = 50))
BXF T24; 23. μg/ml
  Test/Control (%): 2%
  Test/Control activity class: +++ (+++ (T/C < 10))
BXF T24; 75. μg/ml
  Test/Control (%): 2%
  Test/Control activity class: +++ (+++ (T/C < 10))
BXF T24; .75 μg/ml
  Test/Control (%): 88%
  Test/Control activity class: − (− (T/C = 50))
GXF 251L; 2.3 μg/ml
  Test/Control (%): 80%
  Test/Control activity class: − (− (T/C = 50))
GXF 251L; 7.5 μg/ml
  Test/Control (%): 54%
  Test/Control activity class: − (− (T/C = 50))
GXF 251L; 23. μg/ml
  Test/Control (%): 7%
  Test/Control activity class: +++ (+++ (T/C < 10))
GXF 251L; 75. μg/ml
  Test/Control (%): 3%
  Test/Control activity class: +++ (+++ (T/C < 10))
GXF 251L; .75 μg/ml
  Test/Control (%): 90%
  Test/Control activity class: − (− (T/C = 50))
HNXF 536L; 2.3 μg/ml
  Test/Control (%): 102%
  Test/Control activity class: − (− (T/C = 50))
HNXF 536L; 7.5 μg/ml
  Test/Control (%): 97%
  Test/Control activity class: − (− (T/C = 50))
HNXF 536L; 23. μg/ml
  Test/Control (%): 4%
  Test/Control activity class: +++ (+++ (T/C < 10))
HNXF 536L; 75. μg/ml
  Test/Control (%): 3%
  Test/Control activity class: +++ (+++ (T/C < 10))
HNXF 536L; .75 μg/ml
  Test/Control (%): 112%
  Test/Control activity class: − (− (T/C = 50))
MEXF 276L; 2.3 μg/ml
  Test/Control (%): 88%
  Test/Control activity class: − (− (T/C = 50))
MEXF 276L; 7.5 μg/ml
  Test/Control (%): 30%
  Test/Control activity class: + (+ (30 <= T/C < 50))
MEXF 276L; 23. μg/ml
  Test/Control (%): 4%
  Test/Control activity class: +++ (+++ (T/C < 10))
MEXF 276L; 75. μg/ml
  Test/Control (%): 5%
  Test/Control activity class: +++ (+++ (T/C < 10))
MEXF 276L; .75 μg/ml
  Test/Control (%): 95%
  Test/Control activity class: − (− (T/C = 50))
MEXF 394NL; 2.3 μg/ml
  Test/Control (%): 59%
  Test/Control activity class: − (− (T/C = 50))
MEXF 394NL; 7.5 μg/ml
  Test/Control (%): 3%
  Test/Control activity class: +++ (+++ (T/C < 10))
